Assay results reported in paper PMC5845004, “Novel (p)ppGpp Binding and Metabolizing Proteins of Escherichia coli” (mBio, 2018).

Columns and labels:
NudG [1] = biological target: T1, NudG (Escherichia coli, UniProt P77788); test: DRaCALA competition assay, lysate with overproduced NudG; type: binding, E. coli; conditions: whole-cell lysate, 2 nM hot (p)ppGpp, 100 µM cold competitor
T1 construct: expressed in transfected cells; host or cells: E. coli ASKA collection strain, IPTG-induced, whole-cell lysate
Description: (§1) Bacterial cells were collected and frozen at −80°C.

NudG [2] = biological target: T1, NudG; test: In vitro cleavage assay (TLC), NudG; type: biochemical, E. coli; conditions: 1 µM NudG, 10 nM hot ppGpp, 100 µM competitor, 30°C
Description: (§2) The purified His6-MutT and His6-NudG proteins were tested for their relative levels of cleavage of ppGpp compared to those seen with their native substrates. For this, a 1 μM concentration of each protein and a 10 nM concentration of [α-^32P]ppGpp were used together with 100 μM concentrations of cold competitors [ppGpp, GTP, ATP, 8-oxo-(d)GTP, 2-hydroxyl-(d)ATP] or 50 mM EDTA in buffer B. The samples were incubated at 30°C for 10 min and for 1 h before the reactions were stopped by adding 50 mM EDTA. The cleavage products were resolved by TLC as described above. The purified His6-NadR and His6-TrmE proteins were tested for their cleavage of both GTP and ppGpp. For cleavage of GTP, 10 μM concentrations of His6-MBP, His6-TrmE, and 20 μM His6-NadR proteins were used with 2 nM [α-^32P]GTP and 100 μM cold GTP in buffer B. For cleavage of ppGpp, 10 μM concentrations of His6-TrmE, His6-MBP, and His6-NadR proteins were used with 10 nM [α-^32P]ppGpp in buffer B. Of note, for His6-TrmE, another reaction was also performed in buffer B supplemented with 100 mM KCl. The reactions were performed at RT for 10 min and were stopped by adding 17% formic acid. The cleavage products were resolved by TLC as described above.
(§3) A 20 μM concentration of each of purified proteins MutT, NudG, NadR, TrmE, and MBP (as a negative control) was incubated with 100 μM ppGpp in buffer B (containing 40 mM Tris [pH 7.5], 100 mM NaCl, and 10 mM MgCl2) for 20 min at room temperature. Samples were snap-frozen on dry ice and analyzed with UPLC-MS afterward. All samples and buffers were stored at −80°C, thawed on ice, and kept at 4°C during analysis. For the analysis, a UPLC-quadrupole time of flight (UPLC-qTOF) method (Waters) was used. Analysis conditions were as follows: column, zic-HILIC (Merck Millipore) (150 by 2.1 mm, […], gradient elution, flow rate set to 0.3 ml/min); mobile phase A, 10 mM ammonium acetate (pH 5); mobile phase B, 90% acetonitrile with 10 mM ammonium acetate (pH 5). The gradient was set up as follows: min 0 to 2, 80% B; min 2 to 16, 80% B to 50% B; hold until min 20; injection volume, 4 µl. The detection conditions were as follows: photodiode array detector (PDA), […] (evaluated at 260 nm); MS, ionization; electrospray ionization (ESI+), scan, 200 to 800 m/z with lock mass correction. Analytes were identified by their accurate mass and retention time data for a known standard dissolved in used buffer (for the chemicals of the same nominal masses). These standards were either synthesized and their structures confirmed by nuclear magnetic resonance (NMR) (for ppGp, pGpp, and pGp) or purchased (ppGpp was purchased from Jena Biocsience and GTP from Sigma-Aldrich).

MutT [3] = biological target: T2, MutT (Escherichia coli, UniProt P08337); test: In vitro cleavage assay (TLC), MutT; type: biochemical, E. coli; conditions: 1 µM MutT, 10 nM hot ppGpp, 100 µM competitor, 30°C, up to 1 h
Description: as §2, §3

MutT [4] = biological target: T2, MutT; conditions: whole-cell lysate, 2 nM hot (p)ppGpp, 100 µM cold competitor
Description: DRaCALA screening was performed essentially as described before ([39]) with minor modifications. Briefly, ASKA collection strains were inoculated into 1.5 ml LB broth with 25 μg/ml chloramphenicol in deep 96-well plates (Greiner) and grown over night at 30°C. IPTG (1 mM) was added the next morning to induce protein expression at 30°C for 6 h. Bacterial cells were collected and frozen at −80°C. To lyse cells, 150 μl buffer B with 2 mM phenylmethylsulfonyl fluoride (PMSF), 40 μg/ml DNase 1, and 0.5 mg/ml lysozyme was used to resuspend cell pellets and then subjected to three freeze-thaw cycles before Benzonase (Sigma) (2.5 U/well) was added to reduce lysate viscosity. A 20-μl volume of lysate was transferred into a 96-well V-bottom plate (Sterilin), incubated at 37°C for 15 min, and placed on ice. […] Membranes were dried for 10 min at RT, and binding signals were exposed to a BAS IP screen (GE Healthcare) and detected by the use of a Typhoon FLA-7000 PhosphorImager.
For competition assays, purified proteins at the specified concentrations were incubated with 2 nM [α-^32P]ppGpp or [α-^32P]pppGpp in the presence of 100 μM competitor nucleotides in binding buffer B. The reaction mixtures were incubated for 5 min at RT, 2 µl was spotted onto nitrocellulose membranes, and the values corresponding to the bound fractions were determined.

YgdH [5] = biological target: T3, YgdH (Escherichia coli, UniProt P0ADR8); test: DRaCALA competition assay, YgdH; type: binding, E. coli; conditions: 50 µM YgdH, 100 µM cold competitor, without or with 1.5 mM magnesium
Description: (§4) For Kd measurements by DRaCALA, 2-fold serial dilutions from the highest possible concentrations of each purified protein were prepared in binding buffer B, and approximately 2 nM concentrations of α-^32P-labeled ppGpp, pppGpp, GTP, and GDP were added. The mixtures were incubated for 5 min at RT before spotting of 2 µl of the reaction mixtures onto nitrocellulose membranes. […] For competition assays, purified proteins at the specified concentrations were incubated with 2 nM [α-^32P]ppGpp or [α-^32P]pppGpp in the presence of 100 μM competitor nucleotides in binding buffer B. The reaction mixtures were incubated for 5 min at RT, 2 µl was spotted onto nitrocellulose membranes, and the values corresponding to the bound fractions were determined. EDTA was added at excess concentrations as specified for each case.

UshA = biological target: T4, UshA (Escherichia coli, UniProt P07024); test: DRaCALA competition assay, lysate with overexpressed UshA; type: binding; conditions: cell lysate, 2 nM hot (p)ppGpp, 100 µM cold competitor
T4 sequence (P07024 26-550): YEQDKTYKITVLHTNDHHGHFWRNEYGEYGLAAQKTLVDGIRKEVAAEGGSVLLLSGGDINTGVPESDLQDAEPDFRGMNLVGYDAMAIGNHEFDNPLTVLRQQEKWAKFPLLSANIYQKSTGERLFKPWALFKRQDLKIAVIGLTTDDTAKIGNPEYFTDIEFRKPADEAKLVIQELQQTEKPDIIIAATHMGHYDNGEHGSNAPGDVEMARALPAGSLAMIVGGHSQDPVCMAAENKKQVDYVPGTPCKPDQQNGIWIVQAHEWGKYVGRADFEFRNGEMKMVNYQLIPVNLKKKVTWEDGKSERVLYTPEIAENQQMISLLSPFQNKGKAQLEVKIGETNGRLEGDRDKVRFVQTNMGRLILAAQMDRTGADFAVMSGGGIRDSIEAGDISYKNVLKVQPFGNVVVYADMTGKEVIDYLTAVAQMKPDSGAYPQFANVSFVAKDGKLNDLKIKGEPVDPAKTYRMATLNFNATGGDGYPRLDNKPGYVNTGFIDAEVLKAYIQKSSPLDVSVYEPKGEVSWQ
Description: as §1

Der = Der (Escherichia coli, UniProt P0A6P5); test: DRaCALA Kd determination, purified Der; type: binding, E. coli; conditions: 2 nM 32P-labeled ligand, read-out: apparent Kd, Der
Description: as §4

RF3 (PrfC) = RF3 (PrfC) (Escherichia coli, UniProt P0A7I4); test: DRaCALA Kd determination, purified RF3; type: binding, E. coli; conditions: 2 nM 32P-labeled ligand, read-out: apparent Kd, RF3 (PrfC)
Description: (§5) For Kd measurements by DRaCALA, 2-fold serial dilutions from the highest possible concentrations of each purified protein were prepared in binding buffer B, and approximately 2 nM concentrations of α-^32P-labeled ppGpp, pppGpp, GTP, and GDP were added. The mixtures were incubated for 5 min at RT before spotting of 2 µl of the reaction mixtures onto nitrocellulose membranes. The fractions of bound ligand and the apparent Kd values were calculated as previously described ([37]).

TrmE [6] = biological target: T5, TrmE (Escherichia coli, UniProt P25522); test: In vitro cleavage assay (TLC), TrmE; type: biochemical, E. coli; conditions: 10 µM TrmE, buffer B, with 100 mM potassium where stated, 10 min
Description: as §2
A 20 μM concentration of each of purified proteins MutT, NudG, NadR, TrmE, and MBP (as a negative control) was incubated with 100 μM ppGpp in buffer B (containing 40 mM Tris [pH 7.5], 100 mM NaCl, and 10 mM MgCl2) for 20 min at room temperature. Samples were snap-frozen on dry ice and analyzed with UPLC-MS afterward. All samples and buffers were stored at −80°C, thawed on ice, and kept at 4°C during analysis. For the analysis, a UPLC-quadrupole time of flight (UPLC-qTOF) method (Waters) was used. […] The detection conditions were as follows: photodiode array detector (PDA), […] (evaluated at 260 nm); MS, ionization; electrospray ionization (ESI+), scan, 200 to 800 m/z with lock mass correction. […]

SaDer = SaDer (Staphylococcus aureus, UniProt A6QH24); test: DRaCALA Kd determination, SaDer; type: binding, S. aureus
Description: as §5

HypB = HypB (Escherichia coli, UniProt P0AAN3); test: DRaCALA Kd determination, purified HypB; type: binding, E. coli; conditions: 2 nM 32P-labeled ligand, read-out: apparent Kd, HypB
Description: as §4

TrmE [7] = biological target: T5, TrmE; test: DRaCALA Kd determination, purified TrmE; type: binding, E. coli; conditions: in the presence of magnesium, read-out: apparent Kd, TrmE
Description: as §4

YgdH [8] = biological target: T3, YgdH; test: DRaCALA binding and Kd determination, purified YgdH; parameters: species or system E. coli; conditions: DRaCALA, in the presence of EDTA (without Mg2+); read-out: Kd, YgdH + EDTA (converted)
Description: as §4

Hpt = Hpt (Escherichia coli, UniProt P0A9M2); test: DRaCALA competition assay, Hpt; type: binding, E. coli; conditions: 20 µM Hpt, 2 nM hot ppGpp, 100 µM cold competitor
Description: For Kd measurements by DRaCALA, 2-fold serial dilutions from the highest possible concentrations of each purified protein were prepared in binding buffer B, and approximately 2 nM concentrations of α-^32P-labeled ppGpp, pppGpp, GTP, and GDP were added. The mixtures were incubated for 5 min at RT before spotting of 2 µl of the reaction mixtures onto nitrocellulose membranes. The fractions of bound ligand and the apparent Kd values were calculated as previously described ([37]). For competition assays, purified proteins at the specified concentrations were incubated with 2 nM [α-^32P]ppGpp or [α-^32P]pppGpp in the presence of 100 μM competitor nucleotides in binding buffer B. The reaction mixtures were incubated for 5 min at RT, 2 µl was spotted onto nitrocellulose membranes, and the values corresponding to the bound fractions were determined. EDTA was added at excess concentrations as specified for each case.

[9] = biological target: the molecule itself; test: SEC; size exclusion FPLC profile of purified His6-YgdH (53 kDa) compared with protein standards

T2 sequence (P08337 whole entry): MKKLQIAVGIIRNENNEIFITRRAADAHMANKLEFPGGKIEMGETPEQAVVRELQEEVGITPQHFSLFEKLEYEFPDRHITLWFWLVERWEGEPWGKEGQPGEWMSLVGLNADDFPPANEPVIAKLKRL
T1 sequence (P77788 whole entry): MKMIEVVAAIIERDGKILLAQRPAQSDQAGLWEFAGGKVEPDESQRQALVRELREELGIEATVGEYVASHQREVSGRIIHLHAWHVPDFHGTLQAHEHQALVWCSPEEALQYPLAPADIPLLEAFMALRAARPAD
Sequence of Der (P0A6P5 whole entry): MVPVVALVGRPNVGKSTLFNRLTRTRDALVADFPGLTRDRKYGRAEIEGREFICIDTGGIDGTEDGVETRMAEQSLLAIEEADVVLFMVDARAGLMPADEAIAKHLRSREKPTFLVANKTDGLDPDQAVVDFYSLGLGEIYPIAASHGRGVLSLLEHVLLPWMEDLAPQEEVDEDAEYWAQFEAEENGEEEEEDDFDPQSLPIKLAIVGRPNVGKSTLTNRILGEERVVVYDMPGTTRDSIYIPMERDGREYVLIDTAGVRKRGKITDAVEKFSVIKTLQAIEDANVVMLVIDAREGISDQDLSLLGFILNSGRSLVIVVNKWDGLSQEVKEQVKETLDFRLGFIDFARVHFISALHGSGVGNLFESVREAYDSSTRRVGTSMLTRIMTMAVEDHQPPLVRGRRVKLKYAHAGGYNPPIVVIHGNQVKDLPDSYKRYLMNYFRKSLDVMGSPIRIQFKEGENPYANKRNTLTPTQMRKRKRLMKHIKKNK
T5 sequence (P25522 whole entry): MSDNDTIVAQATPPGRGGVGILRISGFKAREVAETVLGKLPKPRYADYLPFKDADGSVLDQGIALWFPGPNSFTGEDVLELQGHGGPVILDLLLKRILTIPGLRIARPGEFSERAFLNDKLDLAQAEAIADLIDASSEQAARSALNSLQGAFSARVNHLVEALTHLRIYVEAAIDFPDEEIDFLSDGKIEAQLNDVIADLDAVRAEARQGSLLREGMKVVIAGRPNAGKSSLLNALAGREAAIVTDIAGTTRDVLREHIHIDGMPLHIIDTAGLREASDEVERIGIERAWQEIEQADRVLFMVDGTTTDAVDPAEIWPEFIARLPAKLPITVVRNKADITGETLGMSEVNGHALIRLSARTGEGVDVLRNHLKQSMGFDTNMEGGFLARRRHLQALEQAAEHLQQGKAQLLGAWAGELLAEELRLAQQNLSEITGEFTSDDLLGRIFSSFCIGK
Sequence of SaDer (A6QH24 whole entry): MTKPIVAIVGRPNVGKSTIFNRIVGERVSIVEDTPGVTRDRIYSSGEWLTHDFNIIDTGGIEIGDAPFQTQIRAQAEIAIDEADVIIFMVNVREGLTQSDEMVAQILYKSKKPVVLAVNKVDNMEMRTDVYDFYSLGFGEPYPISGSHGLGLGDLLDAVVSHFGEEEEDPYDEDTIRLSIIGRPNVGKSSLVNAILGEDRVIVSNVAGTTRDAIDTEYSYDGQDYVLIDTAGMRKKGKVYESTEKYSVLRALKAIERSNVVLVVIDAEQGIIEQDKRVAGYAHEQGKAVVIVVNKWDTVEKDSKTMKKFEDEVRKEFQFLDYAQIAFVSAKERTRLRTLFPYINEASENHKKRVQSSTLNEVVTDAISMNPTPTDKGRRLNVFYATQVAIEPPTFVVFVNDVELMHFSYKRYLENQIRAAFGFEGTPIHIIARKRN
Sequence of HypB (P0AAN3 whole entry): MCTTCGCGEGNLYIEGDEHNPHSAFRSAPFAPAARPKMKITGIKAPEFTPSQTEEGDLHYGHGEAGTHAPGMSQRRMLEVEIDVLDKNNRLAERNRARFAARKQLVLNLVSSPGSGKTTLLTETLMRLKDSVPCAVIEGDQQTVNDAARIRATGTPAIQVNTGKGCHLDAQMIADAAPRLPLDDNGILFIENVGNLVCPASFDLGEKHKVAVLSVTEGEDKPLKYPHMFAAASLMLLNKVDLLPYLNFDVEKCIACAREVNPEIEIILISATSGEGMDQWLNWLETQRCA
Sequence of Hpt (P0A9M2 whole entry): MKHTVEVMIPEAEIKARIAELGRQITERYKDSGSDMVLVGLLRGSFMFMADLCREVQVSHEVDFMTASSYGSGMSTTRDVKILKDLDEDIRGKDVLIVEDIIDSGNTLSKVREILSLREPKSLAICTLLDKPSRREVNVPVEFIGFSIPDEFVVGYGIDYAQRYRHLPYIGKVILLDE
Sequence of RF3 (PrfC) (P0A7I4 whole entry): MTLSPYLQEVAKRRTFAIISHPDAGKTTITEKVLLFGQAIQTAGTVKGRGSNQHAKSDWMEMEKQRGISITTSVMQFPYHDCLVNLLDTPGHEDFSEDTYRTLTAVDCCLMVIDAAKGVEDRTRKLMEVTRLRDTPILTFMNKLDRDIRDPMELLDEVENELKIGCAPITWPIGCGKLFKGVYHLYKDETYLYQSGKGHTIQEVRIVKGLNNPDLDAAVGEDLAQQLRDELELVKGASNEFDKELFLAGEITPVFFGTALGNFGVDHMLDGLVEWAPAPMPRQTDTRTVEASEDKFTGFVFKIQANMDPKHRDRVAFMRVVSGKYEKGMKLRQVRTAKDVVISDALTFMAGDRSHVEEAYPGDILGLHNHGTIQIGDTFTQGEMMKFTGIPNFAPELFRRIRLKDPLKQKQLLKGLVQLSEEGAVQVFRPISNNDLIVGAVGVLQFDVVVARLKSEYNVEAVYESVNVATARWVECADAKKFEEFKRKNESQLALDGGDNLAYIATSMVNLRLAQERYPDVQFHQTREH

Q: Which results are given for 2-OH-(d)ATP?
A: competition for NudG-bound (p)ppGpp (NudG [1]): comparable to unlabeled ppGpp; inhibition of [α-32P]ppGpp cleavage by NudG (NudG [2]): slightly better than ppGpp

Q: How did the “inhibition of [α-32P]ppGpp cleavage by MutT” value (MutT [3]) turn out when 8-oxo-(d)GTP was run?
A: totally inhibited

Q: And the “competition for MutT-bound (p)ppGpp” value (MutT [4])?
A: completely outcompete

Q: With `Nc1ncnc2c1ncn2[C@@H]1O[C@H](COP(=O)(O)O)[C@@H](O)[C@H]1O` [AMP] as the molecule, how does the “competition for [α-32P]ppGpp binding to YgdH by YgdH substrates” value (YgdH [5]) read?
A: none of them could outcompete ppGpp

Q: With `Nc1ncnc2c1ncn2[C@@H]1O[C@H](COP(=O)(O)OP(=O)(O)OP(=O)(O)O)[C@@H](O)[C@H]1O` [ATP] as the molecule, how does the “competition for NudG-bound (p)ppGpp” value (NudG [1]) read?
A: did not compete

Q: `Nc1nc2c(ncn2[C@@H]2O[C@H](COP(=O)(O)OP(=O)(O)O)[C@@H](O)[C@H]2O)c(=O)[nH]1` [GDP] was tested. Which “competition for UshA-bound (p)ppGpp” value (UshA) did it give?
A: but not the structurally very similar GTP and GDP

Q: What about the Kd (Der) of the same molecule?
A: 1.3 ± 0.1 µM

Q: What about the “competition for NudG-bound (p)ppGpp” value (NudG [1]) of the same molecule?
A: but not the structurally very similar GTP and GDP

Q: How did the “competition for [α-32P]ppGpp binding to YgdH by YgdH substrates” value (YgdH [5]) turn out when `Nc1nc2c(ncn2[C@@H]2O[C@H](COP(=O)(O)O)[C@@H](O)[C@H]2O)c(=O)[nH]1` [GMP] was run?
A: none of them could outcompete ppGpp

Q: Which results are given for `Nc1nc2c(ncn2[C@@H]2O[C@H](COP(=O)(O)OP(=O)(O)OP(=O)(O)O)[C@@H](O)[C@H]2O)c(=O)[nH]1` [GTP]?
A: inhibition of [α-32P]ppGpp cleavage by MutT (MutT [3]): very limited inhibitory effects; Kd (RF3 (PrfC)): 29.3 ± 9.8 µM; cleavage by TrmE (TrmE [6]): converted almost all GTP; competition for UshA-bound (p)ppGpp (UshA): but not the structurally very similar GTP and GDP; Kd (SaDer): 3.5 ± 0.8 µM; Kd (HypB): 9 ± 1.8 µM; Kd (Der): 13.7 ± 7.1 µM; Kd (TrmE [7]): 4.6 ± 1.1 µM; competition for NudG-bound (p)ppGpp (NudG [1]): but not the structurally very similar GTP and GDP; Kd (YgdH [8]): 21.4 ± 11.5 µM

Q: With `O=P(O)(O)OC[C@H]1OC(OP(=O)(O)OP(=O)(O)O)[C@H](O)[C@@H]1O` (stereo partly shown) [PRPP, phosphoribosyl pyrophosphate] as the molecule, how does the “competition for bound [α-32P]ppGpp on Hpt” value (Hpt) read?
A: partially outcompete

B1: YgdH (ECK2790), His6-YgdH (enzyme, E. coli K-12, UniProt P0ADR8 1-454, looked up)
chain: MITHISPLGSMDMLSQLEVDMLKRTASSDLYQLFRNCSLAVLNSGSLTDNSKELLSRFENFDINVLRRERGVKLELINPPEEAFVDGRIIRALQANLFAVLRDILFVYGQIHNTVRFPNLNLDNSVHITNLVFSILRNARALHVGEAPNMVVCWGGHSINENEYLYARRVGNQLGLRELNICTGCGPGAMEAPMKGAAVGHAQQRYKDSRFIGMTEPSIIAAEPPNPLVNELIIMPDIEKRLEAFVRIAHGIIIFPGGVGTAEELLYLLGILMNPANKDQVLPLILTGPKESADYFRVLDEFVVHTLGENARRHYRIIIDDAAEVARQMKKSMPLVKENRRDTGDAYSFNWSMRIAPDLQMPFEPSHENMANLKLYPDQPVEVLAADLRRAFSGIVAGNVKEVGIRAIEEFGPYKINGDKEIMRRMDDLLQGFVAQHRMKLPGSAYIPCYEICT
notes: YgdH (ECK2790), nucleotide nucleosidase of E. coli K-12, expressed from the ASKA plasmid library (pCA24N vector); The ASKA clone carries the gene of E. coli K-12; The printed size of His6-YgdH is 53 kDa; source: E. coli ASKA collection AG1 strain, purified (Ni-NTA, size exclusion chromatography); not shown: His6, N-terminal, kept
Q: How did the “stoichiometry N” value [9] turn out when B1 was run?
A: 4
